A word on the Ki: it is the dissociation constant of the complex between target and ligand, obtained from inhibition or displacement. Low readings indicate a stronger hold on the target, high ones a looser hold on the target.

The assay deals with Carnitine O-acetyltransferase (Columba livia). As to the kind of experiment: Tested against pigeon breast carnitine acyltransferase.

Regarding `CC(=O)NC(CC(=O)O)CC(C)(C)C` (configuration not stated) [3-Acetylamino-5,5-dimethyl-hexanoic acid anion], the Ki came to 25 mM.
In turn, `CC(=O)NC(CC(=O)[O-])C[N+](C)(C)C` (configuration not stated) [(2-Acetylamino-3-carboxy-propyl)-trimethyl-ammonium] came in with a Ki of 0.024 mM.

Values taken from BindingDB's records for doi:10.1021/jm00046a008 (University of Alabama At Birmingham, 1994).
